Series [1] is described as follows: Hydrolysis assay: hydrolysis of prodrug to parent species in human liver S9. The class given is in vitro ADME. Particulars: human liver S9 1 mg protein/mL, prodrug 10 μM, 37° C., pH 7.4, 1 mM NADPH; read-out: Half-life (min) of the conversion of the prodrug to the carboxylic acid. On the procedure: Hydrolysis Assay: Analysis of Hydrolysis of Prodrug to Parent Species
The stability of 8 different prodrugs was investigated in human liver S9 microsomes. Incubations of prodrugs (10 μM) with liver S9 (1 mg protein/mL) were carried out at 37° C. in a phosphate buffer, pH 7.4, containing 1 mM NADPH. Control incubations contained BSA (1.1 mg/mL) instead of liver S9 microsomes. Aliquots were removed at 0, 5, 15, 30, 60 and 120 min, treated with 4 volumes of acetonitrile containing 2% formic acid and an internal standard, and centrifuged. The supernatants were analyzed by LC-MS/MS for prodrug disappearance and appearance of active drug. The half-life of the prodrug was calculated from the % prodrug remaining at different time points calculated from on the peak area ratio relative to t=0. The amount of active drug generated at the different time points was determined using a standard curve.

The target in series [2] is recombinant human GST-Syk (Homo sapiens (Human), UniProt P43405). Put plainly: Homogeneous Time-Resolved Fluorescence (HTRF) assay for the recombinant human Syk enzyme. The series is classed as biochemical. Particulars: recombinant human GST-Syk 5 pM, ATP 25 μM, read-out: rhSyk IC50. Put shortly: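 HTRF read-out of phosphorylation of a biotinylated Syk-site peptide (250 nM final) by a GST-tagged human Syk fusion. Reaction initiated with ATP at 25 μM final plus 5 mM magnesium final. Compound potency taken from inhibition of human Syk activity.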

Series [3] deals with T1, Syk kinase (Homo sapiens (Human), UniProt P43405). Particulars: dosed intranasally, allergic rhinitis; cited from earlier work.
Series [4] addresses T1, Syk kinase. Particulars: phase II clinical trial, allergic rhinitis; cited from earlier work.

These results are taken from patent US9145391B2, “Bipyridylaminopyridines as Syk inhibitors” (Merck Sharp & Dohme Corp., priority 2011, dated 2015).

Turning to `COC(=O)[C@H]1CC[C@H](C(C)(O)c2ccc(-c3cc(C)cc(Nc4cc(C(F)F)ccn4)n3)cn2)CC1` (single isomer, unassigned) [Example 22, Methyl trans-4-[(1R or 1S)-1-(6-{[4-(difluoromethyl)pyridin-2-yl]amino}-4-methyl-2,3′-bipyridin-6′-yl)-1-hydroxyethyl]cyclohexanecarboxylate], the half-life at 10 μM in series [1] is 4.6 min. In series [2], the IC50 is 8 nM.
As to `Oc1cccc(Nc2ncc(F)c(Nc3cccc(O)c3)n2)c1` [Example R112], on Syk kinase [3], the PGD2 change entry is recorded as “statistically significant decrease in PGD2” and the clinical safety entry was “safe across a range of indicators”. At Syk kinase [4], the efficacy versus placebo result is “lack of efficacy versus placebo”.

By half-life is commonly meant the time in which the quantity being followed falls by half. As usually defined, the IC50 is the point on the concentration scale where inhibition reaches its midpoint.
